In patent publication US9012439B2, “Use of electrophilic compounds for inducing platelet production or maintaining platelet function” (University of Rochester, priority 2007, dated 2015):

Legend:
Meg-01 cells [1] = test: Platelet production from Meg-01 cells (flow cytometry); format: cell-based, human; details: Meg-01 cells, 10 μM, 24 h
Method: Meg-01 and M07e cells were purchased from the American Type Culture Collection (Rockville, Md.) and Dami cells were a generous gift from Dr. Patricia J. Simpson-Haidaris (University of Rochester). All cells were cultured in RPMI-1640 tissue culture medium (Invitrogen) supplemented with 5% fetal bovine serum (FBS; Invitrogen), 10 mM HEPES (N-2-hydroxyethylpiperazine-N′-2-ethanesulfonic acid; Sigma), 2 mM L-glutamine (Invitrogen), 4.5 g/L glucose (Invitrogen), and 50 μg/mL gentamicin (Invitrogen). M07e cells were also supplemented with 100 ng/mL of granulocyte monocyte-colony stimulating factor (GM-CSF, R&D Systems). All treatments were performed in normal growth media. Dimethyl sulfoxide (DMSO) was used as a vehicle (control) in the experiments described below.
Platelets were isolated from megakaryocytes by centrifugation at 150 xg for 10 min. Supernatants underwent sequential centrifugation (500 xg for 10 min and 1000×g for 10 min). The remaining platelet pellet was fixed then permeabilized with a CD61 or CD41 antibody. 7-AAD (BD Pharmingen) was added for 10 min before analyzing the cells by flow cytometry. Platelets were identified using three well-described parameters (Patel et al., “The Biogenesis of Platelets from Megakaryocyte Proplatelets,” J Clin Invest 115:3348-3354 (2005); Breton-Gorius et al., “Expression of Platelet Proteins During the In Vitro and In Vivo Differentiation of Megakaryocytes and Morphological Aspects of Their Maturation,” Semin Hematol 23:43-67 (1986); Ogura et al., “Establishment of a Novel Human Megakaryoblastic Leukemia Cell Line, MEG-01, With Positive Philadelphia Chromosome,” Blood 66:1384-1392 (1985) and Franks et al., “A Fluorescence Microscopy Method for Quantifying Levels of Prostaglandin Endoperoxide H Synthase-1 and CD-41 in MEG-01 Cells,” Biol Proced Online 3:54-63 (2001), each of which is hereby incorporated by reference in its entirety), size (using normal human platelets as a control), presence of CD61 or CD41 and lack of DNA as determined by the absence of 7-AAD staining Ten thousand platelet events were collected and platelets were quantified by rate (platelet events/second) (Chung et al., “Platelet Activation in Acute, Decompensated Congestive Heart Failure,” Thromb Res 120:709-713 (2007), which is hereby incorporated by reference in its entirety.
A 19 by target sequence was selected to knock down PPARγ. PPARγ was cloned downstream of the RNA polymerase III U6 promoter and subcloned into a FG12 lentiviral vector which expresses green fluorescent protein (GFP) under the Ubiquitin C promoter. HEK 293 cells expressing this siRNA PPARγ had reduced PPARγ protein levels. To make the lentivirus, HEK 293 cells were co-transfected with 3 plasmids: the envelope vector (CMV-VSVG), the transfer vector (FG12-shRNAPPAR), and the packaging construct (pCMVΔ89.2 (gag/pol proteins)). Viral supernatants were collected every 8 h for 2 days and concentrated by ultracentrifugation at 50,000×g for 2 h at 4° C. using a Beckman SW 28 rotor. Viral titers were determined by infection of HeLa cells with serial dilutions of the viral stocks. Meg-01 cells were infected at a multiplicity of infection (MOI) of 20. After 48 h, approximately 56% of the PPARγ siRNA cells were transduced as determined by flow cytometry. The GFP positive (+) cells were then sorted by FACS and grown in RPMI with 5% FBS.

PPARγ = target: T1, PPARγ (Homo sapiens, UniProt P37231); test: PPARγ gene reporter analysis (PPRE-luciferase) in Meg-01 cells; format: cell-based; details: 10 μM, 24 h after ligand treatment
T1 construct: Meg-01 cells were plated at a density of […] cells per well in a E-well plate and transfected; endogenous in cells; host or cells: Meg-01 cells
T1 sequence (P37231 1-505): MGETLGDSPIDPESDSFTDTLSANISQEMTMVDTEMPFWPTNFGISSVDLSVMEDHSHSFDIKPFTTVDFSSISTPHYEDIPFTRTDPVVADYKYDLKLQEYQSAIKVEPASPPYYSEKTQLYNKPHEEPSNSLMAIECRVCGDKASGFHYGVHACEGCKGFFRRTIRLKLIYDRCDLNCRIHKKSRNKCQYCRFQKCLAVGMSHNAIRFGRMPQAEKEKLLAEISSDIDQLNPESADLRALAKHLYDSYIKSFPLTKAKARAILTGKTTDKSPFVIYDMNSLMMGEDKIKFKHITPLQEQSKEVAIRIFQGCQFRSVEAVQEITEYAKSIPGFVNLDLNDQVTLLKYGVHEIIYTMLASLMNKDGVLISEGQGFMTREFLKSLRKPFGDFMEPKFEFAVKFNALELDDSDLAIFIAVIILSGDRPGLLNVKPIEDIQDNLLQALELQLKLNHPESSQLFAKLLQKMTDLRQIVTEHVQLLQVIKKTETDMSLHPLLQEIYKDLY
Method: Meg-01 cells were plated at a density of […] cells per well in a […] and transfected, using lipofectamine LTX (Invitrogen), with a PPRE (Peroxisome Proliferator Response Element)-luciferase reporter plasmid containing three copies of the ACO-PPRE (a gift from Dr. B. Seed, Massachusetts General Hospital, Boston, Mass.). […] Transfection efficiency was determined by transfecting the cells with green fluorescent protein (GFP) plasmid and determining the percentage of cells that were GFP+ by flow cytometry. […] Luciferase activity was assessed 24 h after ligand treatment using the Promega Luciferase Assay System, and relative light units (RLU) were determined using a Lumicount Microplate Luminometer (Packard Instrument Co., Meriden, Conn.).

Meg-01 cells [2] = test: Reactive oxygen species production in Meg-01 cells (carboxy-H2DCFDA, MitoSOX Red); format: cell-based, human; details: Meg-01 cells, 1 h and 6 h; for change in percentage of cells generating mitochondrial superoxide (MitoSOX Red): 10 μM
Method: Ten μM carboxy-H2DCFDA was added to cells for 20 min at RT. The cells were washed and immediately analyzed by flow cytometry. Five μM of MitoSOX Red dye in HBSS containing Mg^2+ and Ca^2+ was added to the cells for 15 min at 37° C. The cells were washed in HBSS and analyzed by flow cytometry.

[3] = system: primary mouse megakaryocytes; test: DNA content analysis of primary mouse megakaryocytes; format: cell-based; details: by 24 h
Method: Bone marrow was isolated from the femora of male C57BL/6 mice (Jackson Laboratories, Bar Harbor, Me.) and plated at a concentration of 1×10^6 cells per well in 12-well plates in IMDM (Iscove's Modified Dulbecco's Media, Invitrogen) with 20% BIT 9500 (BSA, insulin, transferrin) and supplemented with 100 ng/mL of rhTPO. Cells were cultured for 5 days, following which 15d-PGJ2 (10 μM) was added to the culture medium for 24 h. On the sixth day, cells were examined by phase-contrast microscopy using an inverted microscope (Olympus IX81) and images were captured using SPOT RT software (New Hyde Park, N.Y.). Megakaryocytes were identified by preincubating with anti-mouse CD16/32 (FcγR-blocking antibody) and then incubating with PE-conjugated hamster anti-mouse CD41 antibody.
Cells were fixed in 95% ethanol, treated with RNAse (Sigma) followed by 20 μg/mL propidium iodide (Sigma) to stain DNA, and analyzed by flow cytometry.

[4] = system: mouse megakaryocyte progenitors (Meg-CFC); test: Megakaryocyte progenitor (Meg-CFC) assay on bone marrow of treated mice; format: in vivo
Method: Primary mouse bone marrow cells were suspended in IMDM at a concentration of 8×10^6 cells/mL. Two-hundred thousand cells were plated in IMDM supplemented with 20% BIT9500, 0.2% 2-mercaptoethanol, 2% Glutamax, and 20% Cellgro-H20 (Mediatech, Herndon, Va.) and cultured with rhTPO (50 ng/mL), IL-3 (10 ng/mL) (Preprotech, Rocky Hill, N.J.), IL-6 (20 ng/mL) (Preprotech), IL-11 (Preprotech) (50 ng/mL), and collagen at 37° for 7 days (Tober et al., “The Megakaryocyte Lineage Originates from Hemangioblast Precursors and is an Integral Component Both of Primitive and of Definitive Hematopoiesis,” Blood 109:1433-1441 (2007), which is hereby incorporated by reference in its entirety). Collagen gels were dehydrated, fixed, and labeled with GPIbβ and GPV, modified by ABC (Vector Labs, Burlingame, Calif.), and developed in Vector Red (Vector Labs). Meg-CFC were defined by their ability to generate colonies containing at least three megakaryocytes.

C57BL/6 mice [5] = test: Irradiation-induced thrombocytopenia (5 Gy total body irradiation); format: in vivo, mouse (C57BL/6); details: 5 Gy
Method: (§1) Seven or 8-week-old male C57BL/6 mice (Jackson Laboratories) were either exposed to 5 Gy cesium (Cs^137) total body irradiation (TBI) using a Model 8114 6000 Curie Shepherd Cs^137 irradiator (approximately 3200 Curie sealed Cs^137 source) with a dose rate of […] or left unexposed. Mice (n=4) received intravenous injections of vehicle (8% DMSO) or 15d-PGJ2 (1 mg/kg) or CDDO-Me (250 μg/kg) for 4 consecutive days from day 1 (days 1, 2, 3 and 4 post-irradiation). Blood was obtained from the aorta or the orbital sinus. Platelets were counted prior to radiation exposure and after radiation exposure on day 10, day 22, and day 31 in Example 7, or days 4, 10, 16, and 21 in Example 9 using the Heska® CBC-Diff™ Veterinary Analyzer (Fort Collins, Colo.). Data are expressed as average platelet counts from two separate experiments. For the unirradiated mice, platelets were counted on day 4, day 10, and day 15 in Example 7 or on the same days in Example 9.

C57BL/6 mice [6] = test: Circulating platelet number in unirradiated mice; format: in vivo, mouse (C57BL/6); details: unirradiated C57BL/6 mice, 1 mg/kg IV four consecutive days, d 4
Method: as §1

SMILES | platelet production (Meg-01 cells [1]) | PPARγ activation (PPRE-luciferase activity) (PPARγ) | change in percentage of cells generating mitochondrial superoxide (MitoSOX Red) (Meg-01 cells [2]) | change in percentage of cells generating ROS (carboxy-H2DCFDA) (Meg-01 cells [2]) | primary mouse megakaryocyte ploidy [3] | megakaryocyte number [4] | percentage of megakaryocytes producing proplatelets ([4]; mice injected 250 μg/kg for three consecutive days, 7 days of culture) | Meg-CFC colony formation compared to vehicle control ([4]; normal mice, 250 μg/kg for three consecutive days, bone marrow plated day 4) | platelet counts (C57BL/6 mice [5]; 250 μg/kg days 1-4, day 4) | platelet counts (C57BL/6 mice [5]; 250 μg/kg days 1-4, days 10 and 16) | levels of circulating platelets on d 4 (C57BL/6 mice [6])
CCCCC/C=C\C=C1\C(=O)CC[C@@H]1C/C=C\CCCC(=O)O [9,10 dihydro-15d-PGJ2, reference compound] | failed to enhance platelet production | activated PPARγ | failed to increase the percentage of cells generating mitochondrial superoxide | failed to increase the percentage of cells generating ROS |  |  |  |  |  |  | 
COC(=O)[C@]12CCC(C)(C)C[C@H]1[C@H]1C(=O)C=C3[C@@]4(C)C=C(C#N)C(=O)C(C)(C)[C@@H]4CC[C@@]3(C)[C@]1(C)CC2 [CDDO-Me, methyl-2-cyano-3,12-dioxooleana-1,9-dien-28-oate] |  |  |  |  | enhanced primary mouse megakaryocyte ploidy | failed to increase megakaryocyte number | significantly augmented the percentage of megakaryocytes producing proplatelets | significantly enhanced Meg-CFC colony formation | increased platelet counts | significantly improved platelet counts | 
CCCCC/C=C\C=C1\C(=O)C[C@@H](O)[C@H]1C/C=C\CCCC(=O)O [15d-PGD2, 15-deoxy-Δ^12,14-PG22, reference compound] | failed to enhance platelet production |  | failed to increase the percentage of cells generating mitochondrial superoxide | failed to increase the percentage of cells generating ROS |  |  |  |  |  |  | significant increase in the levels of circulating platelets
